“And” between values parts separate entries of the source, which are not always exact repeats. Equal entries are not always repeated. Where two headings read alike, the source gives them in different places.
Legend:
[1] = system: zebrafish TRPM7 (drTRPM7) wild type; assay: Whole-cell patch-clamp of tetracycline-induced HEK293 T-REx cells overexpressing wild type drTRPM7; format: cell-based, zebrafish (Danio rerio); conditions: for effect of extracellular divalent application on monovalent outward currents: 10 mM divalent replacing 10 mM Ca^2+, NMDG external solution; for IC50: 200 s; for Biophysical characteristic: effect on drTRPM7 (Table 1): heterologous drTRPM7
Method: (§1) HEK293 T-REx cells stably expressing HA-tagged Danio rerio TRPM7 (drTRPM7) wild type or mutants were cultured in DMEM with 10% FBS and 5 μg/ml of blasticidin and 200 μg/ml hygromycin. HEK293 T-REx cells were incubated at 37 °C and 5% CO2. Expression was induced by adding 1 μg/ml tetracycline to the growth media 20 hours before experiments. […] Chicken DT40 wild type and DT40 cells with a TRPM7 […] (DT40 TRPM7-KO) cells were maintained as described before.
(§2) Patch-clamp experiments were performed in the tight-seal whole-cell configuration at room temperature (20–25 °C). Whole-cell currents were recorded with the EPC9 (HEKA, Bellmore, NY) and Patchmaster v2.4 (HEKA). Voltages were corrected for a liquid junction potential of 10 mV. The patch pipettes were pulled from borosilicate glass (Sutter Instruments, USA) with resistances of 2.5–3.5 MΩ when filled with internal solution. The voltage ramp protocol ranged from −100 mV to 100 mV over 50 ms and applied at 0.5 Hz. Current amplitudes were measured at −80 mV and +80 mV. The holding potential was set to 0 mV in all experiments. Currents were filtered at 2.9 kHz and digitized at 10 kHz. Cells were seeded on glass cover slips 1–2 days before the day of the experiment. Cover slips were submerged in the external solution at room temperature (20–25 °C). Cover slips and external solutions were replaced every hour.
The standard external solution contained (in mM): 140 NaCl, 2.8 KCl, 2 MgCl2, 11 glucose, 10 HEPES, and 1 CaCl2. The divalent profile experiments were performed using a modified external solution that contained (in mM): 140 N-methyl-D-glucamine (NMDG), 11 glucose, 10 HEPES and 10 CaCl2. For application, 10 mM CaCl2 was replaced with 10 mM of the respective divalent under study. The standard internal solution contained (in mM): 140 Cs-glutamate, 8 NaCl, 10 HEPES, and 10 Cs-BAPTA. pH was adjusted to 7.2 and osmolarity was kept between 290–330 mOsm. The solutions for pH below 6.0 contained (in mM): 140 NaCl, 2.8 KCl, 2 MgCl2, 11 glucose, 10 MES, and 1 CaCl2. For the Mg·ATP dose-response analysis, the internal solution contained (in mM): 120 Cs-glutamate, 8 NaCl, 10 HEPES, 10 Cs-BAPTA. Na·ATP and MgCl2 was used to achieve appropriate concentrations of free intracellular Mg^2+ and Mg·ATP as calculated using WebmaxC Standard (http://www.stanford.edu/~cpatton/webmaxcS.htm).
Statistical analysis was performed using Fitmaster (version 2.69; HEKA, Germany) and Igor software (version 6.34; WaveMetrics, USA). The p-values were calculated using Microsoft Excel version 14.1.2 using the two-tailed paired Student’s T-test. Data were normalized to cell size and expressed as current density (pA/pF), or normalized to the time point right before application (I/I[time]s). […] Dose-response fits were assessed using the fit function f(x) = ([Maximum current] *(1/(1 + ([Estimated IC50]/x)^[Hill coefficient])). The IC50 or EC50 values calculated with the dose-response curve function were reported with ± standard deviation (S.D.).
To study channel biophysics, HA-tagged wild type zebrafish TRPM7 (drTRPM7) was cloned and stably expressed in HEK293 T-REx cells under tetracycline-inducible promotor (see methods; ref. [3]). […] Both clones were also tested for drTRPM7 expression using the whole-cell patch-clamp technique.

Human TRPM6 = conditions: cited from earlier work
drTRPM7-1178 = assay: Whole-cell patch-clamp of HEK293 T-REx cells overexpressing truncation mutant drTRPM7-1178; format: cell-based, zebrafish (Danio rerio)
Method: (§3) Patch-clamp experiments were performed in the tight-seal whole-cell configuration at room temperature (20–25 °C). Whole-cell currents were recorded with the EPC9 (HEKA, Bellmore, NY) and Patchmaster v2.4 (HEKA). Voltages were corrected for a liquid junction potential of 10 mV. The patch pipettes were pulled from borosilicate glass (Sutter Instruments, USA) with resistances of 2.5–3.5 MΩ when filled with internal solution. The voltage ramp protocol ranged from −100 mV to 100 mV over 50 ms and applied at 0.5 Hz. Current amplitudes were measured at −80 mV and +80 mV. The holding potential was set to 0 mV in all experiments. Currents were filtered at 2.9 kHz and digitized at 10 kHz. Cells were seeded on glass cover slips 1–2 days before the day of the experiment. […]
(§4) The standard external solution contained (in mM): 140 NaCl, 2.8 KCl, 2 MgCl2, 11 glucose, 10 HEPES, and 1 CaCl2. […] Na·ATP and MgCl2 was used to achieve appropriate concentrations of free intracellular Mg^2+ and Mg·ATP as calculated using WebmaxC Standard (http://www.stanford.edu/~cpatton/webmaxcS.htm).

Mammalian TRPM7 = conditions: cited from earlier work
drTRPM7-1258 = assay: Whole-cell patch-clamp of HEK293 T-REx cells overexpressing truncation mutant drTRPM7-1258; format: cell-based, zebrafish (Danio rerio)
Method: as §3, §4

[2] = system: endogenous TRPM7-like currents in ZFL cells; assay: Whole-cell patch-clamp of endogenous TRPM7-like currents in zebrafish liver cell line ZFL; format: cell-based
Method: as §1, §2

human TRPM7 (hTRPM7) = conditions: cited from earlier work
drTRPM7-1478 = assay: Whole-cell patch-clamp of HEK293 T-REx cells overexpressing truncation mutant drTRPM7-1478; format: cell-based, zebrafish (Danio rerio); conditions: +80 mV, 200 s; Hill = 2, 1.5 (Fig. 6 legend); read-out: IC50 of internal Mg^2+
Method: Patch-clamp experiments were performed in the tight-seal whole-cell configuration at room temperature (20–25 °C). Whole-cell currents were recorded with the EPC9 (HEKA, Bellmore, NY) and Patchmaster v2.4 (HEKA). Voltages were corrected for a liquid junction potential of 10 mV. […] Current amplitudes were measured at −80 mV and +80 mV. […]
as §4

[3] = 1 mM intracellular Mg·ATP, 250 μM free Mg^2+

In the case of `[Co+2]` [cobalt], the “effect of extracellular divalent application on monovalent outward currents” value (from here on “effect … on monovalent outward currents”) ([1]; +80 mV) is reported as “almost completely suppressed”.
With `[Ba+2]` [barium] the “effect … on monovalent outward currents” value ([1]; +80 mV) was “facilitated outward currents”.
In the case of `[Cd]` [cadmium], the “effect … on monovalent outward currents” value ([1]; +80 mV) is reported as “facilitated outward currents”.
For `[Sr+2]` [strontium], the “effect … on monovalent outward currents” value ([1]; +80 mV) was “facilitated outward currents”.
With `[Ni+2]` [nickel] the “effect … on monovalent outward currents” value ([1]; +80 mV) was “almost completely suppressed”.
For `Nc1ncnc2c1ncn2[C@@H]1O[C@H](COP(=O)(O)OP(=O)([O-])OP(=O)([O-])O)[C@@H](O)[C@H]1O.[Mg+2]` [Mg·ATP, Mg·adenosine triphosphate], the IC50 ([1]; internal free Mg^2+ 250 μM, +80 mV, Hill coefficient 1, read-out: IC50 of intracellular Mg·ATP on drTRPM7 currents) is given as 1160 µM and 1200 µM, the IC50 ([1]; internal free Mg^2+ 250 μM, +80 mV, Hill coefficient set to 1, read-out: IC50 of intracellular Mg·ATP on drTRPM7 currents (Fig. 1E legend)) is given as 1160 ± 700 µM and the “effect on human TRPM6 currents” value (Human TRPM6) is given as “No effect[14]”. The “effect of Mg·ATP on drTRPM7-1178 currents” value (drTRPM7-1178; [3]) was “did not seem to have any effect”, the “sensitivity of drTRPM7-1178 currents to intracellular Mg·ATP” value (drTRPM7-1178; up to 6 mM Mg·ATP, 250 μM free Mg^2+) was “completely lost any sensitivity” and the IC50 (Mammalian TRPM7; Table 1, read-out: IC50 of Mg·ATP on mammalian TRPM7) was 2000 µM. The “effect of Mg·ATP on drTRPM7-1258 currents” value (drTRPM7-1258; [3]) was “fully inhibited” and the “sensitivity to intracellular Mg·ATP of drTRPM7-1258 compared to drTRPM7-1478 and wild type” value (drTRPM7-1258; ratio of IC50 values) was “about 4 fold”.
In the case of `NCCOB(c1ccccc1)c1ccccc1` [2-APB, 2-aminoethyl diphenylborinate, reference compound], the “facilitation of inward and outward drTRPM7-like currents” value ([2]; 500 μM 2-APB applied at 400 s) is reported as 50%, the “effect of 2-APB on drTRPM7 currents” value ([1]; concentrations of 300 μM and above) is reported as “greatly enhanced” and the “Biophysical characteristic: effect on drTRPM7 (Table 1)” value [1] is reported as “Potentiation”. For the same compound, the “effect of 2-APB on drTRPM7 currents” value ([1]; lower concentrations (30 μM and 100 μM)) was “small but statistically not significant inhibitory effect”, the “effect of 2-APB on drTRPM7 currents” value ([1]; various concentrations, up to 500 μM, external application) was “facilitated rather than inhibited” and the “effect of 2-APB on human TRPM6” value (Human TRPM6; Table 1) was “Potentiation[12]”. The “effect on human TRPM6 currents” value (Human TRPM6) was “enhances”, the “effect of 2-APB on hTRPM7 currents” value (human TRPM7 (hTRPM7)) was “inhibits” and the “effect of 2-APB on mammalian TRPM7” value (Mammalian TRPM7; Table 1) was “Inhibition[12]”.
For `C=C1CC/C=C(\C)CC[C@@H]2C([C@H](C/C=C(\C)COC(C)=O)OC(C)=O)=CO[C@H](OC(C)=O)[C@@H]12` [Waixenicin A, reference compound], the “effect of waixenicin A on drTRPM7 currents” value ([1]; 10 μM waixenicin A, 410 μM internal free Mg / 780 μM free Mg^2+ (Fig. 4 legend)) is listed as “no effect”, the “Biophysical characteristic: effect on drTRPM7 (Table 1)” value [1] is listed as “No effect” and the “effect on human TRPM6 currents” value (Human TRPM6) is listed as “No effect[14]”. The “effect on human TRPM6 currents” value (Human TRPM6; listed as waixenicin A) was “no significant effect” and the “effect of waixenicin A on mammalian TRPM7” value (Mammalian TRPM7; Table 1) was “Inhibition[13]”.
In the case of `[Mg+2]` [Mg^2+, magnesium], the “effect of intracellular free Mg^2+ on drTRPM7-like current development” value ([2]; 3.2 mM free Mg^2+ in pipette solution) is reported as “completely suppressed”, the “effect … on monovalent outward currents” value ([1]; +80 mV) is reported as “almost completely suppressed” and the IC50 ([1]; current at +80 mV, Hill coefficient 1, read-out: IC50 of intracellular free Mg^2+ on drTRPM7 currents) is reported as 778 µM. The IC50 (Human TRPM6; Table 1, read-out: IC50 of Mg^2+ on human TRPM6) was 29 µM, the IC50 (drTRPM7-1178; +80 mV, 200 s, Hill = 3, read-out: IC50 of internal Mg^2+) was 840 ± 158 µM and the IC50 (Mammalian TRPM7; Table 1, read-out: IC50 of Mg^2+ on mammalian TRPM7) was 720 µM. The IC50 (Mammalian TRPM7; read-out: IC50 of intracellular Mg^2+ on heterologous and/or native mouse and human TRPM7) was roughly 750 µM, the IC50 (drTRPM7-1258; +80 mV, 200 s, Hill = 2, read-out: IC50 of internal Mg^2+) was 250 ± 0.52 µM and the IC50 (drTRPM7-1478) was 450 ± 0.55 µM.
